Measured values: US20190369111A1, “MOLECULAR KINETICS EVALUATION METHOD AND SCREENING METHOD” (Tokyo University of Science Foundation, priority 2016, published 2019)

Target: endogenous wild-type p53 protein (Homo sapiens, UniProt P04637)
Experiment: Degradation of endogenous wild-type p53 protein in HeLa cells, Western blot analysis
Assay type: cell-based
Design: endogenous in cells
Protocol: HeLa cells were seeded in a 24-well plate at a cell density of 4×10^4 cells/well, and then cultured under conditions of 37° C. and 5 vol % CO2 for 16 hours.
After 16 hours from cell seeding, TIBC-CANDDY_MLN was added to HeLa cells as follows. […]
After electrophoresis, proteins were transferred to a PVDF membrane (Immobion™-P, Millipore) under conditions of 100 V and 2 hours using a tank-type blotting device and a transfer buffer (25 mM Tris-HCl, 195 mM glycine, 0.01% SDS, 15% methanol). […] Subsequently, the membrane was treated with a chemiluminescence reagent Immobilon™ Western (Millipore), and then chemiluminescence was detected using a lumino image analyzer LAS-3000 (FUJIFILM Corporation).

Chain of endogenous wild-type p53 protein (P04637 whole entry): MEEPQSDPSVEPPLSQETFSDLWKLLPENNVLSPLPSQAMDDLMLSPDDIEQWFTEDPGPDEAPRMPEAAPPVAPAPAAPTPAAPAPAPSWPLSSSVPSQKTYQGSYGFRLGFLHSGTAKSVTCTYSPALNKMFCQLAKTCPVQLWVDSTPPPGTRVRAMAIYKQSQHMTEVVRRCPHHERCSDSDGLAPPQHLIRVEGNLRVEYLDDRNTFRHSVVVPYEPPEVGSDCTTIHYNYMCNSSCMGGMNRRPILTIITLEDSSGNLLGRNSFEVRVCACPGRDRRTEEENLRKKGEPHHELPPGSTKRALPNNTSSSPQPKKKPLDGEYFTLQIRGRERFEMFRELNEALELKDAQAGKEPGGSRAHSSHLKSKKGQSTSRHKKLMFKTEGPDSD

Compound: CC(C)C[C@H](NC(=O)CNC(=O)c1cc(Cl)ccc1Cl)C(=O)NCCCCCCC(=O)Nc1ccc(C(=O)/C=C/c2ccc(I)cc2)cc1 [TIBC-CANDDY_MLN]
- amount of endogenous wild-type p53 protein (24 hours after addition): the amount of the endogenous wild-type p53 protein was reduced
- amount of wild-type p53 protein when MLN2238 is added together (both TIBC-CANDDY_MLN and MLN2238 added): the amount of the wild-type p53 protein was increased as compared with the control (DMSO)
